This is an account of results in patent US8921383B2, “Thiazolopyrimidine compounds” (Hoffmann-La Roche Inc., priority 2011, dated 2014).

In general, IC50 refers to the point on the concentration scale where inhibition reaches its midpoint.

This assay addresses T1, purified recombinant human SYK360-635 (Homo sapiens, UniProt P43405).
T1 construct: truncated construct of Spleen Tyrosine Kinase aa 360-635; GST; made in house
Put plainly: SYK kinase assay: 33P γATP incorporation into biotinylated peptide substrate, IC50 determination. The settings on record: SYK 0.5 nM, ATP 20 μM, DYE peptide 5 μM, 30° C. 15 min; read-out: IC50 h-syk-gst-sf9-c (inactive-dephosphorylated). It counts as biochemical. On the procedure:
Determination of IC50 of Spleen Tyrosine Kinase (SYK) Inhibition:
SYK kinase assay is a standard kinase assay adapted to a 96 well plate format. This assay is performed in 96-well format for IC50 determination with […] which represented 10 half log dilutions and a 40 μL reaction volume. The assay measures the incorporation of radiolabeled ^33P γATP into an N-terminally biotinylated peptide substrate, derived from naturally occurring phosphoacceptor consensus sequence (Biotin-11aa DY*E). Phosphorylated products were detected upon termination of reactions with EDTA and the addition of Streptavidin coated beads.
Assay plates: 96-well MultiScreen 0.65 um filter plates (Millipore Cat. No.: MADVNOB10)
BSA: Bovine Serum Albumin Fraction V, fatty acid free (Roche Diagnostics GmbH, Cat. No. 9100221) diluted to a final concentration of 0.1%
Assay Dilution Buffer (ADB): 50 mM HEPES, 0.1 mM EGTA, 0.1 mM Na Vanadate, 0.1 mM β-glycerophosphate, 10 mM MgCl2, 1 mM DTT, 0.1% BSA, pH 7.5
Bead wash buffer: 10 g/L PBS (Phosphate buffered saline) with 2M NaCl+1% phosphoric acid.
DMSO and the mixture was incubated for 10 min at RT.
The kinase reaction was initiated by the addition of 10 μL 4× substrate cocktail containing the DYE peptide substrate [0 or 5 μM], ATP [20 μM] and ^33PγATP [2 μCi/r×n]. After incubation at 30° C. for 15 min, the reaction was terminated by the transfer of 25 μL of the reaction sample to a 96 well 0.65 μm Millipore MADVNOB membrane/plate containing 200 μL 5 mM EDTA and 20% Streptavidine coated beads in PBS.
After the last wash membrane/plates were transferred to an adaptor plate, heat dried for 15 min at 60° C., and 50 μL scintillation cocktail was added to each well and 4 h later the amount of radioactivity was counted in a top counter.
For `COc1ccc(Nc2nc(-c3cccc(C(F)=Cc4ccc(C(=O)O)cc4)c3)nc3scnc23)cc1OC` (stereo in doubt) [Compound I-31, 4-((E)-2-{3-[7-(3,4-Dimethoxy-phenylamino)-thiazolo[5,4-d]pyrimidin-5-yl]-phenyl}-2-fluoro-vinyl)-benzoic acid], the IC50 came to 592 nM.
As for `COc1ccc(Nc2nc(-c3cccc(C(=O)O)c3)nc3scnc23)cc1OC` [Compound I-1, 3-[7-(3,4-Dimethoxy-phenylamino)-thiazolo[5,4-d]pyrimidin-5-yl]-benzoic acid], the IC50 worked out at 421 nM.
The same measure for `COc1ccc(Nc2nc(-c3cccc(C(=O)N4CCCNCC4)c3)nc3scnc23)cc1OC` [Compound I-2, [1,4]Diazepan-1-yl-{3-[7-(3,4-dimethoxy-phenylamino)-thiazolo[5,4-d]pyrimidin-5-yl]-phenyl}-methanone]: 1110 nM; for `CNC(=O)c1ccc(NC(=O)c2cccc(-c3nc(Nc4ccc(OC)c(OC)c4)c4ncsc4n3)c2)cc1` [Compound I-3, 3-(7-(3,4-Dimethoxyphenylamino)thiazolo[5,4-d]pyrimidin-5-yl)-N-(4-(methylcarbamoyl)phenyl)benzamide]: 71 nM; for `COc1ccc(Nc2nc(N3CCC(NC(=O)c4ccc5c(c4)NC(=O)C5)C3)nc3scnc23)cc1OC` (stereo not shown) [Compound I-8, N-(1-(7-(3,4-Dimethoxyphenylamino)thiazolo[5,4-d]pyrimidin-5-yl)pyrrolidin-3-yl)-2-oxoindoline-6-carboxamide]: 882 nM.
The same measure for `COc1ccc(Nc2nc(N3CCC(NC(=O)c4ccc(C(=O)O)c(O)c4)C3)nc3scnc23)cc1OC` (stereo not shown) [Compound I-9, 4-(1-(7-(3,4-Dimethoxyphenylamino)thiazolo[5,4-d]pyrimidin-5-yl)pyrrolidin-3-ylcarbamoyl)-2-hydroxybenzoic acid]: 40 nM; for `COc1ccc(Nc2nc(N3CCC(NC(=O)c4ccc(C(=O)O)c(OC)c4)C3)nc3scnc23)cc1OC` (stereo not shown) [Compound I-10, 4-(1-(7-(3,4-Dimethoxyphenylamino)thiazolo[5,4-d]pyrimidin-5-yl)pyrrolidin-3-ylcarbamoyl)-2-methoxybenzoic acid]: 111 nM; for `COc1ccc(Nc2nc(N3CCC(NC(=O)c4ccc5cn[nH]c5c4)C3)nc3scnc23)cc1OC` (stereo not shown) [Compound I-11, N-(1-(7-(3,4-Dimethoxyphenylamino)thiazolo[5,4-d]pyrimidin-5-yl)pyrrolidin-3-yl)-1H-indazole-6-carboxamide]: 406 nM.
Take `COc1ccc(Nc2nc(N3CCC(NC(=O)c4cnccn4)C3)nc3scnc23)cc1OC` (stereo not shown) [Compound I-12, N-(1-(7-(3,4-Dimethoxyphenylamino)thiazolo[5,4-d]pyrimidin-5-yl)pyrrolidin-3-yl)pyrazine-2-carboxamide]: the IC50 was found to be 933 nM.
As to `COc1ccc(Nc2nc(N3CCC(NC(=O)c4ccc(N)nc4)C3)nc3scnc23)cc1OC` (stereo not shown) [Compound I-13, 6-Amino-N-{1-[7-(3,4-dimethoxy-phenylamino)-thiazolo[5,4-d]pyrimidin-5-yl]-pyrrolidin-3-yl}-nicotinamide], the IC50 is 566 nM.
The same measure for `COc1ccc(Nc2nc(N3CCC(NC(=O)c4ccc5[nH]c(=O)[nH]c5c4)C3)nc3scnc23)cc1OC` (stereo not shown) [Compound I-14, N-(1-(7-(3,4-Dimethoxyphenylamino)thiazolo[5,4-d]pyrimidin-5-yl)pyrrolidin-3-yl)-2-oxo-2,3-dihydro-1H-benzo[d]imidazole-5-carboxamide]: 487 nM.
For `COc1ccc(Nc2nc(-c3cccc(C(=O)Nc4ccc(-c5nnc(S)o5)cc4)c3)nc3scnc23)cc1OC` [Compound I-15, 3-[7-(3,4-Dimethoxy-phenylamino)-thiazolo[5,4-d]pyrimidin-5-yl]-N-[4-(5-mercapto-[1,3,4]oxadiazol-2-yl)-phenyl]-benzamide], the IC50 came out at 45 nM.
As to `COc1ccc(Nc2nc(-c3cccc(C(=O)Nc4ccc(C(=O)O)c(OC)c4)c3)nc3scnc23)cc1OC` [Compound I-16, 4-(3-(7-(3,4-Dimethoxyphenylamino)thiazolo[5,4-d]pyrimidin-5-yl)benzamido)-2-methoxybenzoic acid], the IC50 came out at 12 nM.
In the case of `COc1ccc(Nc2nc(-c3cccc(C(=O)Nc4ccc5[nH]ncc5c4)c3)nc3scnc23)cc1OC` [Compound I-18, 3-[7-(3,4-Dimethoxy-phenylamino)-thiazolo[5,4-d]pyrimidin-5-yl]-N-(1H-indazol-5-yl)-benzamide], the 50% inhibitory concentration (IC50) came out at 980 nM.
For the molecule `COc1ccc(Nc2nc(-c3cccc(C(=O)Nc4ccc5cn[nH]c5c4)c3)nc3scnc23)cc1OC` [Compound I-19, 3-[7-(3,4-Dimethoxy-phenylamino)-thiazolo[5,4-d]pyrimidin-5-yl]-N-(1H-indazol-6-yl)-benzamide], the IC50 came to 56 nM.
For `COc1ccc(Nc2nc(-c3ccc(C(=O)NCCc4ccncc4)cc3)nc3scnc23)cc1OC` [Compound I-20, 4-[7-(3,4-Dimethoxy-phenylamino)-thiazolo[5,4-d]pyrimidin-5-yl]-N-(2-pyridin-4-yl-ethyl)-benzamide], the IC50 was 566 nM.
The result for `COc1ccc(Nc2nc(N3CCC(C(=O)NCCc4ccncc4)CC3)nc3scnc23)cc1OC` [Compound I-21, 1-(7-(3,4-Dimethoxyphenylamino)thiazolo[5,4-d]pyrimidin-5-yl)-N-(2-(pyridin-4-yl)ethyl)piperidine-4-carboxamide] reads 1850 nM; that for `COc1ccc(Nc2nc(N3CCC(C(=O)NCCc4cc[nH]c(=O)c4)CC3)nc3scnc23)cc1OC` [Compound I-22, 1-(7-(3,4-Dimethoxyphenylamino)thiazolo[5,4-d]pyrimidin-5-yl)-N-(2-(2-oxo-1,2-dihydropyridin-4-yl)ethyl)piperidine-4-carboxamide], 4880 nM; that for `COc1ccc(Nc2nc(-c3ccc(C(=O)NCCc4cc[nH]c(=O)c4)cc3)nc3scnc23)cc1OC` [Compound I-23, 4-(7-(3,4-Dimethoxyphenylamino)thiazolo[5,4-d]pyrimidin-5-yl)-N-(2-(2-oxo-1,2-dihydropyridin-4-yl)ethyl)benzamide], 930 nM.
As to `COc1ccc(Nc2nc(-c3ccc(C(=O)NCCc4ccn(C)c(=O)c4)cc3)nc3scnc23)cc1OC` [Compound I-24, 4-[7-(3,4-Dimethoxy-phenylamino)-thiazolo[5,4-d]pyrimidin-5-yl]-N-[2-(1-methyl-2-oxo-1,2-dihydro-pyridin-4-yl)-ethyl]-benzamide], the IC50 was determined as 916 nM.
The result for `COC(=O)c1cccc(-c2nc(Nc3cccc(S(C)(=O)=O)c3)c3ncsc3n2)c1` [Compound I-26, Methyl 3-(7-(3-(methylsulfonyl)phenylamino)thiazolo[5,4-d]pyrimidin-5-yl)benzoate] reads 2060 nM; that for `CS(=O)(=O)c1cccc(Nc2nc(-c3cccc(C(=O)O)c3)nc3scnc23)c1` [Compound I-27, 3-[7-(3-Methanesulfonyl-phenylamino)-thiazolo[5,4-d]pyrimidin-5-yl]-benzoic acid], 4610 nM.
The same measure for `COCC1CCCN1c1cccc(Nc2nc(-c3cccc(C(=O)O)c3)nc3scnc23)c1` (stereo not shown) [Compound I-28, 3-{7-[3-(2-Methoxymethyl-pyrrolidin-1-yl)-phenylamino]-thiazolo[5,4-d]pyrimidin-5-yl}-benzoic acid]: 3130 nM.
The same measure for `COc1ccc(Nc2nc(-c3cccc(CNc4ccc(C(=O)OC(C)(C)C)cc4)c3)nc3scnc23)cc1OC` [Compound I-29, tert-Butyl 4-(3-(7-(3,4-dimethoxyphenylamino)thiazolo[5,4-d]pyrimidin-5-yl)benzylamino)benzoate]: 1490 nM.
Consider `COc1ccc(Nc2nc(-c3cccc(CNc4ccc(C(=O)O)cc4)c3)nc3scnc23)cc1OC` [Compound I-30, 4-(3-(7-(3,4-Dimethoxyphenylamino)thiazolo[5,4-d]pyrimidin-5-yl)benzylamino)benzoic acid], for which the IC50 worked out at 18 nM.
The result for `COc1ccc(Nc2nc(-c3cccc(/C=C/c4ccc(C(=O)O)cc4)c3)nc3scnc23)cc1OC` [Compound I-32, (E)-4-(3-(7-(3,4-Dimethoxyphenylamino)thiazolo[5,4-d]pyrimidin-5-yl)styryl)benzoic acid] reads 60 nM; that for `COc1ccc(Nc2nc(-c3cccc(CCc4ccc(C(=O)O)cc4)c3)nc3scnc23)cc1OC` [Compound I-33, 4-(3-(7-(3,4-Dimethoxyphenylamino)thiazolo[5,4-d]pyrimidin-5-yl)phenethyl)benzoic acid], 350 nM; that for `O=C(O)c1cccc(-c2nc(Nc3cccc(N4C[C@H]5CC[C@@H](C4)O5)c3)c3ncsc3n2)c1` [Compound I-34, 3-{7-[(1R,5S)-3-(8-Oxa-3-aza-bicyclo[3.2.1]oct-3-yl)-phenylamino]-thiazolo[5,4-d]pyrimidin-5-yl}-benzoic acid], 2470 nM.
